Columns and labels:
Assay type in all cases: in vivo
kochia (Kochia scoparia) = experiment: Test B pre-/postemergence plant response
In short: (§1)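 Visual injury rating, 0 (no effect) to 100 (complete control), vs untreated controls after ~10 d greenhouse. Pre: directed soil spray after planting in loam/sand. Post: plants 2–10 cm, 1–2 leaf stage. Compound in non-phytotoxic solvent plus surfactant.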

[1] = test system: ragweed (common ragweed, Ambrosia elatior); experiment: Test B pre-/postemergence plant response
In short: as §1

[2] = test system: Italian ryegrass (Lolium multiflorum); experiment: Test B pre-/postemergence plant response
In short: as §1

[3] = test system: blackgrass (Alopecurus myosuroides); experiment: Test D pre-/postemergence plant response; settings: Postemergence; for Blackgrass plant response rating: scale 0 to 100 (0 no effect, 100 complete control); for Plant response rating, Blackgrass: scale 0 to 100, 0 no effect, 100 complete control
In short: (§2)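 Greenhouse herbicidal response, both pre- and postemergence applications, with solvent/surfactant formulation. Postemergence plants were at 1- to 4-leaf stage. Visual scores 0–100 relative to controls, taken 13 to 15 days later.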

[4] = test system: oilseed rape (Brassica napus); experiment: Test D pre-/postemergence plant response; settings: Postemergence; for Oilseed Rape plant response rating: 31 g ai/ha, scale 0 to 100 (0 no effect, 100 complete control); for Plant response rating, Oilseed Rape: scale 0 to 100, 0 no effect, 100 complete control
In short: as §2

[5] = test system: barnyardgrass (Echinochloa crus-galli); experiment: Test D pre-/postemergence plant response; settings: Postemergence; for Barnyardgrass plant response rating: scale 0 to 100 (0 no effect, 100 complete control); for Plant response rating, Barnyardgrass: scale 0 to 100, 0 no effect, 100 complete control
In short: as §2

[6] = test system: velvetleaf (Abutilon theophrasti); experiment: Test D pre-/postemergence plant response; settings: Postemergence; for Velvetleaf plant response rating: 31 g ai/ha, scale 0 to 100 (0 no effect, 100 complete control); for Plant response rating, Velvetleaf: scale 0 to 100, 0 no effect, 100 complete control
In short: as §2

[7] = test system: pigweed (Amaranthus retroflexus); experiment: Test D pre-/postemergence plant response; settings: Postemergence; for Pigweed plant response rating: 31 g ai/ha, scale 0 to 100 (0 no effect, 100 complete control); for Plant response rating, Pigweed: scale 0 to 100, 0 no effect, 100 complete control
In short: as §2

[8] = test system: johnsongrass (Sorghum halepense); experiment: Test D pre-/postemergence plant response; settings: Postemergence; for Johnsongrass plant response rating: 31 g ai/ha, scale 0 to 100 (0 no effect, 100 complete control); for Plant response rating, Johnsongrass: scale 0 to 100, 0 no effect, 100 complete control
In short: as §2

[9] = test system: giant foxtail (Setaria faberii); experiment: Test D pre-/postemergence plant response; settings: Postemergence; for Foxtail, Giant plant response rating: scale 0 to 100 (0 no effect, 100 complete control); for Plant response rating, Foxtail, Giant: scale 0 to 100, 0 no effect, 100 complete control
In short: as §2

rice (Oryza sativa) = experiment: Test C flooded paddy test plant response; settings: Flood, 250 g ai/ha; scale of 0 to 100 where 0 is no effect and 100 is complete control; 13 to 15 days
In short: (§3)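 Visual injury ratings (0, no effect; 100, complete control) were assigned after 13 to 15 days in a greenhouse, comparing treated plants with controls. Compounds had been added straight into paddy water over 2-leaf-stage plants flooded to 3 cm.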

[10] = test system: small-flower umbrella sedge (Cyperus difformis); experiment: Test C flooded paddy test plant response; settings: Flood, 250 g ai/ha; scale of 0 to 100 where 0 is no effect and 100 is complete control; 13 to 15 days
In short: as §3

[11] = test system: barnyardgrass (Echinochloa crus-galli); experiment: Test C flooded paddy test plant response; settings: Flood, 250 g ai/ha; scale of 0 to 100 where 0 is no effect and 100 is complete control; 13 to 15 days
In short: as §3

[12] = test system: ducksalad (Heteranthera limosa); experiment: Test C flooded paddy test plant response; settings: Flood, 250 g ai/ha; scale of 0 to 100 where 0 is no effect and 100 is complete control; 13 to 15 days
In short: as §3

[13] = 31 g ai/ha, Preemergence, 0 to 100 scale where 0 is no effect and 100 is complete control
[14] = 125 g ai/ha, postemergence, 0 to 100 scale, 0 no effect, 100 complete control
[15] = Postemergence, 31 g ai/ha, 0 to 100 scale (0 no effect, 100 complete control)
[16] = Preemergence, 125 g ai/ha, 0 to 100 scale (0 no effect, 100 complete control)
[17] = Postemergence, 500 g ai/ha, 0 to 100 scale (0 no effect, 100 complete control)
[18] = Preemergence, 500 g ai/ha, 0 to 100 scale where 0 is no effect and 100 is complete control

SMILES	Plant response rating, Kochia (kochia (Kochia scoparia); [14])	Kochia plant response rating (kochia (Kochia scoparia); [16])	Plant response rating, Ragweed [1, 14]	Ragweed plant response rating [1, 16]	Plant response rating, Ryegrass, Italian [2, 14]	Ryegrass, Italian plant response rating [2, 16]	Blackgrass plant response rating ([3]; 16 g ai/ha)	Blackgrass plant response rating ([3]; 31 g ai/ha)	Plant response rating, Blackgrass ([3]; 62 g ai/ha)	Plant response rating, Blackgrass ([3]; 125 g ai/ha)	Oilseed Rape plant response rating [4]	Plant response rating, Oilseed Rape ([4]; 62 g ai/ha)	Plant response rating, Oilseed Rape ([4]; 125 g ai/ha)	Barnyardgrass plant response rating ([5]; 16 g ai/ha)	Barnyardgrass plant response rating ([5]; 31 g ai/ha)	Plant response rating, Barnyardgrass ([5]; 62 g ai/ha)	Plant response rating, Barnyardgrass ([5]; 125 g ai/ha)	Velvetleaf plant response rating [6]	Plant response rating, Velvetleaf ([6]; 62 g ai/ha)	Plant response rating, Velvetleaf ([6]; 125 g ai/ha)	other results
CC(F)(F)c1cc(-c2ccccc2Oc2ncc(Br)cn2)no1 [Compound 149]	100	80	20	0	20	10	0	0	0	30	30	60	85	5	5	5	10	30	40	65	Plant response rating, Kochia (kochia (Kochia scoparia); [13]): 20; Plant response rating, Kochia (kochia (Kochia scoparia); [15]): 90; Plant response rating, Ragweed [1, 13]: 0; Plant response rating, Ragweed [1, 15]: 10; Plant response rating, Ryegrass, Italian [2, 13]: 0; Plant response rating, Ryegrass, Italian [2, 15]: 0; Pigweed plant response rating [7]: 85; Plant response rating, Pigweed ([7]; 62 g ai/ha): 95; Plant response rating, Pigweed ([7]; 125 g ai/ha): 90; Johnsongrass plant response rating [8]: 10; Plant response rating, Johnsongrass ([8]; 62 g ai/ha): 15; Plant response rating, Johnsongrass ([8]; 125 g ai/ha): 10; Foxtail, Giant plant response rating ([9]; 16 g ai/ha): 5; Foxtail, Giant plant response rating ([9]; 31 g ai/ha): 10; Plant response rating, Foxtail, Giant ([9]; 62 g ai/ha): 10; Plant response rating, Foxtail, Giant ([9]; 125 g ai/ha): 30; Rice plant response rating (rice (Oryza sativa)): 0; Sedge, Umbrella plant response rating [10]: 65; Barnyardgrass plant response rating [11]: 0; Ducksalad plant response rating [12]: 80
Cc1cc(-c2ccccc2Oc2ncc(Cl)cn2)no1 [Compound 153]	90	20	20	0	30	0	0	0	0	0	40	60	85	5	5	5	5	20	60	50	Plant response rating, Kochia (kochia (Kochia scoparia); [17]): 90; Plant response rating, Kochia (kochia (Kochia scoparia); [18]): 100; Plant response rating, Ragweed [1, 17]: 100; Plant response rating, Ragweed [1, 18]: 40; Plant response rating, Ryegrass, Italian [2, 17]: 60; Plant response rating, Ryegrass, Italian [2, 18]: 20; Pigweed plant response rating [7]: 20; Plant response rating, Pigweed ([7]; 62 g ai/ha): 40; Plant response rating, Pigweed ([7]; 125 g ai/ha): 70; Johnsongrass plant response rating [8]: 0; Plant response rating, Johnsongrass ([8]; 62 g ai/ha): 5; Plant response rating, Johnsongrass ([8]; 125 g ai/ha): 10; Foxtail, Giant plant response rating ([9]; 16 g ai/ha): 0; Foxtail, Giant plant response rating ([9]; 31 g ai/ha): 0; Plant response rating, Foxtail, Giant ([9]; 62 g ai/ha): 5; Plant response rating, Foxtail, Giant ([9]; 125 g ai/ha): 5; Rice plant response rating (rice (Oryza sativa)): 0; Sedge, Umbrella plant response rating [10]: 0; Barnyardgrass plant response rating [11]: 0; Ducksalad plant response rating [12]: 0
